Tests used:
Type in all cases: in vivo
[1] = test system: Setaria faberi (SETFA); test: Post-emergence biological efficacy, glasshouse, 500 or 1000 g/ha, evaluated after 13 days (100=total damage to plant; 0=no damage to plant); conditions: Setaria faberi, 312 h, rate 1,000 g/ha, read-out: Percentage damage caused to weed species, post-emergence, SETFA
Experimental: (§1) Seeds of Alopecurus myosuroides (ALOMY), Setaria faberi (SETFA), Echinochloa […]), Solanum nigrum (SOLNI), Amaranthus retroflexus (AMARE) and Ipomoea hederaceae (IPOHE) were sown in standard soil in pots. […] The test plants were then grown on under controlled conditions in a glasshouse (at 24/16° C., day/night; 14 hours light; 65% humidity) and watered twice daily. […]

[2] = test system: Amaranthus retroflexus (AMARE); test: as above; conditions: Amaranthus retroflexus, 312 h, rate 1,000 g/ha, read-out: Percentage damage caused to weed species, post-emergence, AMARE
Experimental: as §1

[3] = test system: Solanum nigrum (SOLNI); test: as above; conditions: Solanum nigrum, 312 h, rate 1,000 g/ha, read-out: Percentage damage caused to weed species, post-emergence, SOLNI
Experimental: as §1

[4] = test system: Echinochloa crusgaffi (ECHCG); test: as above; conditions: Echinochloa, 312 h, rate 1,000 g/ha, read-out: Percentage damage caused to weed species, post-emergence, ECHCG
Experimental: as §1

[5] = test system: Alopecurus myosuroides (ALOMY); test: as above; conditions: Alopecurus myosuroides, 312 h, rate 1,000 g/ha, read-out: Percentage damage caused to weed species, post-emergence, ALOMY
Experimental: as §1

[6] = test system: Ipomoea hederaceae (IPOHE); test: as above; conditions: Ipomoea, 312 h, rate 1,000 g/ha, read-out: Percentage damage caused to weed species, post-emergence, IPOHE
Experimental: as §1

[7] = test system: Setaria faberi (SETFA); test: Pre-emergence biological efficacy, glasshouse, 1000 g/ha, evaluated after 13 days (100=total damage to plant; 0=no damage to plant); conditions: Setaria faberi, 312 h, rate 1,000 g/ha, read-out: Percentage damage caused to weed species, pre-emergence, SETFA
Experimental: (§2) Seeds of Alopecurus myosuroides (ALOMY), Setaria faberi (SETFA), Echinochloa crus-galli (ECHCG), Solanum nigrum (SOLNI), Amaranthus retroflexus (AMARE) and Ipomoea hederaceae (IPOHE) were sown in standard soil in pots. […] The test plants were then grown under controlled conditions in the glasshouse (at 24/16° C., day/night; 14 hours light; 65% humidity) and watered twice daily. […]

[8] = test system: Echinochloa crus-galli (ECHCG); test: as above; conditions: Echinochloa crus-galli, 312 h, rate 1,000 g/ha, read-out: Percentage damage caused to weed species, pre-emergence, ECHCG
Experimental: as §2

[9] = test system: Amaranthus retroflexus (AMARE); test: as above; conditions: Amaranthus retroflexus, 312 h, rate 1,000 g/ha, read-out: Percentage damage caused to weed species, pre-emergence, AMARE
Experimental: as §2

[10] = test system: Solanum nigrum (SOLNI); test: as above; conditions: Solanum nigrum, 312 h, rate 1,000 g/ha, read-out: Percentage damage caused to weed species, pre-emergence, SOLNI
Experimental: as §2

[11] = test system: Alopecurus myosuroides (ALOMY); test: as above; conditions: Alopecurus myosuroides, 312 h, rate 1,000 g/ha, read-out: Percentage damage caused to weed species, pre-emergence, ALOMY
Experimental: as §2

[12] = test system: Ipomoea hederaceae (IPOHE); test: as above; conditions: Ipomoea, 312 h, rate 1,000 g/ha, read-out: Percentage damage caused to weed species, pre-emergence, IPOHE
Experimental: as §2

Compound: COc1c(Cl)ccc(-c2nc(C(=O)O)c3c(C)c[nH]c3n2)c1F [Compound 1-63, 4-carboxy-2-(4-chloro-2-fluoro-3-methoxyphenyl)-5-methyl-7H-pyrrolo[2,3-d]pyrimidine]
- pest or weed control at 1000 g/ha [1]: 60%
- pest or weed control at 1000 g/ha [2]: 100%
- pest or weed control at 1000 g/ha [3]: 100%
- pest or weed control at 1000 g/ha [4]: 60%
- pest or weed control at 1000 g/ha [5]: 40%
- pest or weed control at 1000 g/ha [6]: 70%
- pest or weed control at 1000 g/ha [7]: 10%
- pest or weed control at 1000 g/ha [8]: 20%
- pest or weed control at 1000 g/ha [9]: 70%
- pest or weed control at 1000 g/ha [10]: 90%
- pest or weed control at 1000 g/ha [11]: 30%
- pest or weed control at 1000 g/ha [12]: 80%

Compound: COC(=O)c1nc(-c2ccc(Cl)c(N(C)C)c2F)nc2[nH]c(C)c(C)c12 [Compound 1-120, 2-(4-Chloro-3-dimethylamino-2-fluorophenyl)-5,6-dimethyl-4-methoxycarbonyl-7H-pyrrolo[2,3-d]pyrimidine]
- pest or weed control at 1000 g/ha [1]: 0%
- pest or weed control at 1000 g/ha [2]: 10%
- pest or weed control at 1000 g/ha [3]: 20%
- pest or weed control at 1000 g/ha [4]: 0%
- pest or weed control at 1000 g/ha [5]: 0%
- pest or weed control at 1000 g/ha [6]: 20%
- pest or weed control at 1000 g/ha [7]: 0%
- pest or weed control at 1000 g/ha [8]: 0%
- pest or weed control at 1000 g/ha [9]: 0%
- pest or weed control at 1000 g/ha [10]: 0%
- pest or weed control at 1000 g/ha [11]: 0%
- pest or weed control at 1000 g/ha [12]: 0%

Compound: COC(=O)c1nc(-c2ccc(Cl)c(OC)c2F)nc2c1NCCN2Cc1ccccc1 [Compound 95-162, 8-benzyl-2-(4-chloro-2-fluoro-3-methoxyphenyl)-4-methoxycarbonyl-5,6,7,8-tetrahydropteridine]
- pest or weed control at 1000 g/ha [1]: 0%
- pest or weed control at 1000 g/ha [2]: 70%
- pest or weed control at 1000 g/ha [3]: 40%
- pest or weed control at 1000 g/ha [4]: 0%
- pest or weed control at 1000 g/ha [5]: 10%
- pest or weed control at 1000 g/ha [6]: 30%
- pest or weed control at 1000 g/ha [7]: 0%
- pest or weed control at 1000 g/ha [8]: 0%
- pest or weed control at 1000 g/ha [9]: 0%
- pest or weed control at 1000 g/ha [10]: 0%
- pest or weed control at 1000 g/ha [11]: 10%
- pest or weed control at 1000 g/ha [12]: 40%

Compound: COc1c(Cl)ccc(-c2nc(C(=O)O)c3c(C)cn(Cc4ccc(F)cc4)c3n2)c1F [Compound 9-63]
- pest or weed control at 1000 g/ha [1]: 0%
- pest or weed control at 1000 g/ha [2]: 20%
- pest or weed control at 1000 g/ha [3]: 60%
- pest or weed control at 1000 g/ha [4]: 0%
- pest or weed control at 1000 g/ha [5]: 0%
- pest or weed control at 1000 g/ha [6]: 40%
- pest or weed control at 1000 g/ha [7]: 0%
- pest or weed control at 1000 g/ha [8]: 0%
- pest or weed control at 1000 g/ha [9]: 20%
- pest or weed control at 1000 g/ha [10]: 10%
- pest or weed control at 1000 g/ha [11]: 0%
- pest or weed control at 1000 g/ha [12]: 0%

Compound: COc1c(Cl)ccc(-c2nc(C(=O)OC(C)C)c3c(C)c[nH]c3n2)c1F [Compound 1-78, 2-(4-Chloro-2-fluoro-3-methoxyphenyl)-4-isopropoxycarbonyl-5-methyl-7H-pyrrolo[2,3-d]pyrimidine]
- pest or weed control at 1000 g/ha [1]: 0%
- pest or weed control at 1000 g/ha [2]: 0%
- pest or weed control at 1000 g/ha [3]: 60%
- pest or weed control at 1000 g/ha [4]: 0%
- pest or weed control at 1000 g/ha [5]: 0%
- pest or weed control at 1000 g/ha [6]: 70%
- pest or weed control at 1000 g/ha [7]: 0%
- pest or weed control at 1000 g/ha [8]: 0%
- pest or weed control at 1000 g/ha [9]: 50%
- pest or weed control at 1000 g/ha [10]: 40%
- pest or weed control at 1000 g/ha [11]: 0%
- pest or weed control at 1000 g/ha [12]: 20%

Compound: COC(=O)c1nc(C2CC2)nc2[nH]cc(C)c12 [Compound 1-4, 2-Cyclopropyl-4-methoxycarbonyl-5-methyl-7H-pyrrolo[2,3-d]pyrimidine]
- pest or weed control at 1000 g/ha [1]: 80%
- pest or weed control at 1000 g/ha [2]: 100%
- pest or weed control at 1000 g/ha [3]: 90%
- pest or weed control at 1000 g/ha [4]: 70%
- pest or weed control at 1000 g/ha [5]: 10%
- pest or weed control at 1000 g/ha [6]: 70%
- pest or weed control at 1000 g/ha [7]: 30%
- pest or weed control at 1000 g/ha [8]: 30%
- pest or weed control at 1000 g/ha [9]: 90%
- pest or weed control at 1000 g/ha [10]: 90%
- pest or weed control at 1000 g/ha [11]: 10%
- pest or weed control at 1000 g/ha [12]: 60%

Reference: patent US20120202690A1, “HERBICIDAL COMPOUNDS” (SYNGENTA LIMITED, priority 2009, published 2012)
